Measured values from patent US20240270821A1, “GIP/GLP1/GCG TRI-RECEPTOR AGONISTS AND USES THEREOF” (priority 2023, published 2024).
Where two headings read alike, the source gives them in different places. Marks after values point to notes of the source that are not given here. Starred links: 1 amine or outer side, 2 acyl side, 3 side chain; linkers in the order of their positions; H or OH if unused. Non-standard residues stand in square brackets, D forms with d. Groups on a side chain read outwards from the residue. No end group written: not given here. *: point of attachment. C20 diacid = O=C(O)CCCCCCCCCCCCCCCCCCC(=O)*; C18 diacid = O=C(O)CCCCCCCCCCCCCCCCC(=O)*; γGlu = O=C(O)[C@H](CCC(=O)[*:2])N[*:1]; αMe4Pal = C[C@](N)(Cc1ccncc1)C(=O)O; αMeL = CC(C)C[C@](C)(N)C(=O)O; AEEA = NCCOCCOCC(=O)O; Aib = CC(C)(N)C(=O)O

Tests used:
[1] = target: T1, hGIPR (Homo sapiens, UniProt P48546); experiment: Functional cAMP activity in the presence of 1% HSA; assay type: cell-based
T1 sequence (P48546 22-466): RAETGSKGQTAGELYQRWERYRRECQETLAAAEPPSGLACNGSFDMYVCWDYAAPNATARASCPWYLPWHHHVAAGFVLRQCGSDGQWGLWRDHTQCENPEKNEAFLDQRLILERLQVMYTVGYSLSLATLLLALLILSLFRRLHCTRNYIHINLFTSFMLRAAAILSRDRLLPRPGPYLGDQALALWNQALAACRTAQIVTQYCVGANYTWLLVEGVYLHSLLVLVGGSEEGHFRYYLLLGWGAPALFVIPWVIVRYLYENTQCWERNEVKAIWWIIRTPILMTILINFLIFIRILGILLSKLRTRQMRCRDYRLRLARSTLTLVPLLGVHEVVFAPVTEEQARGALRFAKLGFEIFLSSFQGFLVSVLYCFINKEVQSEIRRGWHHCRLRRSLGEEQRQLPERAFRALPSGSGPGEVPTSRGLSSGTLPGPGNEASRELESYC

[2] = target: human GLP1-R (Homo sapiens, UniProt P43220); experiment: GLP1-R internalization assay in HEK293 cells; assay type: cell-based; settings: for Internalization % TOP: normalized to maximum concentration of GLP-1 (100%)
[3] = In vivo ileum (distal loop) absorption assay; settings: Sprague Dawley, rat, 300 μM peptide with 100 mM C10, rats; for level at time molar at 10 min: read-out: 10 min IL plasma concentration; for level at time molar at 20 min: read-out: 20 min IL plasma concentration; for level at time molar at 40 min: read-out: 40 min IL plasma concentration; for level at time molar at 1 h: 60 min, read-out: 60 min IL plasma concentration
Experimental: Ileum absorption of the exemplary polypeptides in the presence of C10 in rats is evaluated using a previously reported intestinal closed loop model (Lawrence, S. A.; Blankenship, R.; Brown, […].; Ellis, B.; Thangaraju, A.; Datta-Mannan, A., Influence of FcRn binding properties on the gastrointestinal absorption and exposure profile of Fc molecules. […] Overnight fasted Sprague Dawley rats with body weights between 250-280 grams are anesthetized by inhaling isoflurane and placed on a warm surgical table maintained by circulating water at 37 °C. The surgical area is shaved, and the skin is disinfected with betadine scrub followed by 70% isopropyl alcohol. An approximately 2 cm ventral midline incision is made to expose intestine, and 10 cm of an ileum segment is tied off. The peptides are formulated with 100 mM C10 in Tris buffer (pH 8.0, 50 mM) at a final concentration of 300 μM. The formulations are administered directly into the ileum loop. […] Blood samples are collected into tubes containing […] (5%) and processed to plasma for subsequent analyses. Peptide concentrations in the plasma are determined by LC/MS.

[4] = target: human GcgR (Homo sapiens, UniProt P47871); experiment: Functional cAMP activity in the presence of 1% HSA; assay type: cell-based
[5] = target: T1, hGIPR; experiment: Functional cAMP activation in the presence of 0.1% casein (no HSA); assay type: cell-based;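 on Relative cAMP EC50, hGIPR: intracellular cAMP rise after 30 min at 37 °C read by HTRF against a standard curve, scaled between buffer alone (0%) and top control ligand concentration (100%), four-parameter fit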;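 on Relative cAMP EC50, hGLP-1R: intracellular cAMP rise after 30 min at 37 °C read by HTRF, normalized between buffer only (0%) and maximal control ligand (100%), four-parameter variable-slope fit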;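 on Relative cAMP EC50, hGcgR: intracellular cAMP rise after 30 min at 37 °C, read by HTRF against a cAMP standard curve, scaled from buffer only (0%) to maximal control ligand response (100%)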
[6] = target: T2, hGLP-1R (Homo sapiens, UniProt P43220); experiment: Functional cAMP activity in the presence of 1% HSA; assay type: cell-based
Target sequence in this assay (P43220 24-463): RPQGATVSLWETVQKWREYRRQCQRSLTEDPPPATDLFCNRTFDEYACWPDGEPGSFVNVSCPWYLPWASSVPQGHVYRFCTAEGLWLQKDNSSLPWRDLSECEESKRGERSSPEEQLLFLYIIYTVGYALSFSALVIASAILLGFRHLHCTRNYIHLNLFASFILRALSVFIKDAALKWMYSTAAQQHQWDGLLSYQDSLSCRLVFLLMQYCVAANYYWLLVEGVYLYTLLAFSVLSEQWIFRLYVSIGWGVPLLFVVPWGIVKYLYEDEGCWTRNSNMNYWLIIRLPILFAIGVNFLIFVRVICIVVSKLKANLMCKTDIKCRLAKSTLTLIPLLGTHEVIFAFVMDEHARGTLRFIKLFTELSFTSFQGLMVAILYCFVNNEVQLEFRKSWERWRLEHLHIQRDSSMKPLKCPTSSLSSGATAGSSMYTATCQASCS

[7] = target: T2, hGLP-1R; experiment: Functional cAMP activation in the presence of 0.1% casein (no HSA); assay type: cell-based;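 on Relative cAMP EC50, hGIPR: intracellular cAMP rise after 30 min at 37 °C read by HTRF against a standard curve, scaled between buffer alone (0%) and top control ligand concentration (100%), four-parameter fit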;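 on Relative cAMP EC50, hGLP-1R: intracellular cAMP rise after 30 min at 37 °C read by HTRF, normalized between buffer only (0%) and maximal control ligand (100%), four-parameter variable-slope fit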;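 on Relative cAMP EC50, hGcgR: intracellular cAMP rise after 30 min at 37 °C, read by HTRF against a cAMP standard curve, scaled from buffer only (0%) to maximal control ligand response (100%)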
Target sequence in this assay (P43220 24-463): as above

[8] = target: hGcgR (Homo sapiens, UniProt P47871); experiment: as above; assay type: cell-based;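 further: intracellular cAMP rise after 30 min at 37 °C, read by HTRF against a cAMP standard curve, scaled from buffer only (0%) to maximal control ligand response (100%)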
[9] = Pharmacokinetics in male Sprague Dawley rats, single subcutaneous administration; settings: rat, in vivo, sc, 10 nmol/kg
[10] = Body weight in diet-induced obese C57BL/6 mice; assay type: in vivo; settings: percent of starting weight, DIO mice, mean ± SEM n=5
Procedure, shortened: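 Male C57BL/6 DIO mice (41-50 g, 5 per group, randomized by weight) on calorie-rich diet received subcutaneous doses 30-90 min before dark onset, QD or Q3D for 9-16 days. Body weight measured daily, expressed as percent of starting weight, mean±SEM.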

[11] = target: T2, hGLP-1R; experiment: GLP-1R CHO cell β-arrestin recruitment assay; assay type: cell-based; parameters: host or cells: CHO-K1 (PathHunter, assay-ready frozen cells); settings: for EC50: CHO-K1 PathHunter, β-arrestin-2, 0.1% casein, read-out: hGLP1R β-arrestin Rel EC50; for % Stimulation Max: normalized to GLP-1(7-36) as maximum control;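 on all read-outs here: luminescence read after 90 min peptide exposure at 37 °C and a further 60 min with detection reagent at room temperature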
Target sequence in this assay (P43220 24-463): as above
Target sequence in this assay (P32121 whole entry partner): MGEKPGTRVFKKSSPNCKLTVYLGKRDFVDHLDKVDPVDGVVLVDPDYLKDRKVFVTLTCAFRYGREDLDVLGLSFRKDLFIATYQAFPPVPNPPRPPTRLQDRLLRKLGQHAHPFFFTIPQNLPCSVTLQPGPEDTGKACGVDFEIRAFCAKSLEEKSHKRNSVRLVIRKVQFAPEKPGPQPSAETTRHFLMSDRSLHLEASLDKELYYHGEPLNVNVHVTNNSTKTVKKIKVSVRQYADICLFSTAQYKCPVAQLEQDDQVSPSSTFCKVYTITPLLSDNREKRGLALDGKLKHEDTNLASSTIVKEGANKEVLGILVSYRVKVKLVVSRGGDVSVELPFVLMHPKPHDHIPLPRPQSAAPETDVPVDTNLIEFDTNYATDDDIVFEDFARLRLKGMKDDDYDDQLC

[12] = HEK293 cells expressing SNAP-GLP-1R, read-out: GLP1R Internalization EC50
[13] = in the presence of 0.1% casein (no HSA), geometric mean, read-out: Relative cAMP EC50, hGIPR
[14] = read-out: cAMP Rel EC50, hGLP-1R
[15] = in the presence of 0.1% casein (no HSA), geometric mean, read-out: Relative cAMP EC50, hGLP-1R
[16] = in the presence of 0.1% casein (no HSA), geometric mean, read-out: Relative cAMP EC50, hGcgR

Chain of human GcgR (P47871 26-477): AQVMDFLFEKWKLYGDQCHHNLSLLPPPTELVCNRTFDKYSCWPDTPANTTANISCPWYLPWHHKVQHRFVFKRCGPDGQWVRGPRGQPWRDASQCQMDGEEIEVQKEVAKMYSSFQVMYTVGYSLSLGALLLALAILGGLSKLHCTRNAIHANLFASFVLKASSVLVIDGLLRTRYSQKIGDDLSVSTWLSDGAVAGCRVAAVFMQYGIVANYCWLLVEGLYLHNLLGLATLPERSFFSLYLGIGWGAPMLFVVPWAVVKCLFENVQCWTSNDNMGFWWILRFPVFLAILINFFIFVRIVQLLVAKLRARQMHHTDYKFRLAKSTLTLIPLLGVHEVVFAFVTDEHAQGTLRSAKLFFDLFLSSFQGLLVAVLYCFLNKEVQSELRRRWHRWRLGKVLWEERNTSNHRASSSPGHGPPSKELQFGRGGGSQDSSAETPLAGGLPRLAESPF
Chain of hGcgR (P47871 26-477): as above
Chain of human GLP1-R (P43220 24-463): as the sequence (P43220 24-463) above

EC50 ([1]; read-out: cAMP Rel EC50, hGIPR) | EC50 [2, 12] | EC50 ([4]; read-out: cAMP Rel EC50, hGcgR) | EC50 [5, 13] | CL/F [9] | half-life [9] | EC50 [6, 14] | Molecule | EC50 [1] | EC50 [2] | Internalization % TOP [2] | AUC [3] | level at time molar at 10 min [3] | level at time molar at 20 min [3] | level at time molar at 40 min [3] | level at time molar at 1 h [3] | EC50 [4] | EC50 [5] | EC50 [6] | EC50 [7] | EC50 [8] | also measured
 |  |  |  |  |  |  | Y[Aib]QGTFTSDFSQ[αMeL]LDKK([AEEA-γGlu-C18 diacid])AQ[αMe4Pal]AFIEYLIE[Aib]GESSGAPPPSGS-NH2 [Example 232] | 24.6 nM | 44.7 nM | 45.5% | 0.202 µM·h | 186 nM | 235 nM | 255 nM | 256 nM | 482 nM | 0.102 nM | 226 nM | 0.819 nM | 2.42 nM | 
105 nM | 10.9 nM | 1750 nM | 0.382 nM | 0.0645 mL/min/kg | 22.4 h | 139 nM | H-Y[Aib]QGTFTSDYSI[αMeL]LDKK([AEEA-γGlu-C20 diacid])AQRAFIEYLLEGGPSSGEPPPSEG-NH2 [Example 289] |  |  | 86.5% |  |  |  |  |  |  |  |  |  |  | Body weight (%) ([10]; 10 nmol/kg SC Q3D, 14 days): 82.32 ± 1.25 %; Body weight (%) ([10]; 10 nmol/kg SC QD, 16 days): 60.94 ± 1.87 %; EC50 [7, 15]: 0.449 nM; EC50 [11]: 5.96 nM; % Stimulation Max [11]: 47.5%; EC50 [8, 16]: 5.02 nM
75.5 nM | 49.5 nM | 1630 nM | 0.207 nM | 0.143 mL/min/kg | 12.1 h | 631 nM | Y[Aib]QGTFTSDFSK[αMeL]LDKK([AEEA-γGlu-C20 diacid])AQ[Aib]AFIEYLLAGGPSSGEPPPSGE-NH2 [Example 2] |  |  | 66.8% |  |  |  |  |  |  |  |  |  |  | Body weight (%) ([10]; 10 nmol/kg SC Q3D, 14 days): 77.90 +/− 1.90**** %; EC50 [7, 15]: 1.65 nM; EC50 [11]: > 10000 nM; % Stimulation Max [11]: 12.3%; EC50 [8, 16]: 4.29 nM
 |  |  |  |  |  |  | CC[C@H](C)[C@H](NC(=O)[C@H](Cc1ccccc1)NC(=O)[C@H](C)NC(=O)C(C)(C)NC(=O)[C@H](CCC(N)=O)NC(=O)[C@H](C)NC(=O)[C@H](CCCCNC(=O)COCCOCCNC(=O)CC[C@H](NC(=O)CCCCCCCCCCCCCCCCC(=O)O)C(=O)O)NC(=O)[C@H](CCCCN)NC(=O)[C@H](CC(=O)O)NC(=O)[C@H](CC(C)C)NC(=O)[C@](C)(CC(C)C)NC(=O)[C@H](CCC(N)=O)NC(=O)[C@H](CO)NC(=O)[C@H](Cc1ccccc1)NC(=O)[C@H](CC(=O)O)NC(=O)[C@H](CO)NC(=O)[C@@H](NC(=O)[C@H](Cc1ccccc1)NC(=O)[C@@H](NC(=O)CNC(=O)[C@H](CCC(N)=O)NC(=O)C(C)(C)NC(=O)[C@@H](N)Cc1ccc(O)cc1)[C@@H](C)O)[C@@H](C)O)C(=O)N[C@@H](CCC(=O)O)C(=O)N[C@@H](Cc1ccc(O)cc1)C(=O)N[C@@H](CC(C)C)C(=O)N[C@@H](CC(C)C)C(=O)N[C@@H](CCC(=O)O)C(=O)NC(C)(C)C(=O)NCC(=O)N1CCC[C@H]1C(=O)N[C@@H](CO)C(=O)N[C@@H](CO)C(=O)NCC(=O)N[C@@H](C)C(=O)N1CCC[C@H]1C(=O)N1CCC[C@H]1C(=O)N1CCC[C@H]1C(=O)N[C@@H](CO)C(=O)NCC(=O)N[C@@H](CO)C(N)=O [Example 151] | 14.9 nM | 77.8 nM | 55% | 0.0886 µM·h | 69 nM | 95 nM | 115 nM | 124 nM | 1420 nM | 0.0784 nM | 384 nM | 1.6 nM | 3.5 nM | 
